Test results as given in article PMC6920566 (Journal of molecular biology, 2019).

System: MDA-MB-231 cells
Assay: Fluorescence microscopy of A488-pHLIP cellular interaction
Assay type: cell-based, human

Substance: H2N-GCEQNPIYWARYADWLF-TTPLLLLDLALLVDADEGTG-CONH2 [A488-pHLIP]
- A488 fluorescence of cells (microscopy) (pH 5.0, absence of divalent cations): large increase in A488 fluorescence intensity
- A488 fluorescence of cells (microscopy) (pH 7.4, 1.8 mM Ca2+): significant increase in A488 fluorescence intensity
- A488 fluorescence of cells (microscopy) (pH 7.4, absence of divalent cations, washed before imaging): No significant fluorescence
